According to patent US11833178B2, “Bifidobacterium longum for treating obesity and weight management” (priority 2017, dated 2023):
In brackets after ≈: the same amount, converted by molar mass.

test system: Bifidobacterium longum APC1472; assay: Antibiotic susceptibility (VetMIC plates, ISO 10932:2010); type: cell-based, Bifidobacterium longum ssp. longum; details: APC1472, 48 h, read-out: MICs
Procedure: Antibiotic susceptibility was tested with […] plates Lact-1 and Lact-2 supplied from SVA (National Veterinary Institute, Uppsala, Sweden). […] MICs were determined as 80% or more reduction in pellet, compared to positive control lane. Borderline cases were interpreted by visual examples from “Methods for Antimicrobial Susceptibility Testing of Anaerobic Bacteria: Approved Standard” (CLSI, 7th edition).

SMILES	MIC [µg/mL]
CN[C@H](CC(C)C)C(=O)N[C@H]1C(=O)N[C@@H](CC(N)=O)C(=O)N[C@H]2C(=O)N[C@H]3C(=O)N[C@H](C(=O)N[C@H](C(=O)O)c4cc(O)cc(O)c4-c4cc3ccc4O)[C@H](O)c3ccc(c(Cl)c3)Oc3cc2cc(c3O[C@@H]2O[C@H](CO)[C@@H](O)[C@H](O)[C@H]2O[C@H]2C[C@](C)(N)[C@H](O)[C@H](C)O2)Oc2ccc(cc2Cl)[C@H]1O [Va, Vancomycin]	0.5 (≈ 0.345 µM)

same assay, conditions: APC1472, range of MICs for duplicate experiments, 37° C., 48 h, read-out: MICs

SMILES	MIC [µg/mL]
CC1(C)S[C@@H]2[C@H](NC(=O)[C@H](N)c3ccccc3)C(=O)N2[C@H]1C(=O)O [Am, Ampicillin]	2 (≈ 5.72 µM)
CC[C@H]1OC(=O)[C@H](C)[C@@H](O[C@H]2C[C@@](C)(OC)[C@@H](O)[C@H](C)O2)[C@H](C)[C@@H](O[C@@H]2O[C@H](C)C[C@H](N(C)C)[C@H]2O)[C@](C)(O)C[C@@H](C)C(=O)[C@H](C)[C@@H](O)[C@]1(C)O [Em, Erythromycin]	0.06 to 0.12 (≈ 0.0818 to 0.164 µM)
CN(C)[C@@H]1C(O)=C(C(N)=O)C(=O)[C@@]2(O)C(O)=C3C(=O)c4c(O)cccc4[C@@](C)(O)[C@H]3C[C@@H]12 [Tc, Tetracycline]	1 (≈ 2.25 µM)

Further lines, results first:

MIC [µg/mL]	SMILES
2 (≈ 6.19 µM)	O=C(N[C@H](CO)[C@H](O)c1ccc([N+](=O)[O-])cc1)C(Cl)Cl [Cm, Chloramphenicol]
64 to 128 (≈ 110 to 220 µM)	[H]/N=C(/N)N[C@H]1[C@H](O)[C@@H](O)[C@H](O[C@@H]2O[C@@H](C)[C@](O)(C=O)[C@H]2O[C@@H]2O[C@@H](CO)[C@H](O)[C@@H](O)[C@@H]2NC)[C@@H](N/C(N)=N\[H])[C@@H]1O [Sm, Streptomycin]
